Calls of active or inactive are those of the source.
How the values were obtained:
[1] = inhibitors of firefly luciferase expression or activity, dose response, H4 neuroglioma cells, luminescence (AID 1990); type: functional, cell-based
[2] = test system: BJ; test: cytotoxicity toward BJ-TERT fibroblasts, dose response, cell-based, RAS-independent, luminescence (AID 1933); type: functional; details: Homo sapiens
[3] = Luminescence Cell-Based Dose Response HTS to Identify Inhibitors of 5'UTR Stem-Loop Driven Prion Protein mRNA Translation in H4 Neuroglioblastoma Cells. [Related pubchem assays: 1827 (Project Summary), 1813 (Primary HTS)]; type: functional
[4] = inhibitors of SNCA 5'UTR-driven reporter translation, confirmation, H4 neuroglioma cells, luminescence (AID 1988); type: functional, cell-based
[5] = test system: BJ; test: cells; type: functional, cell-based; details: Homo sapiens
[6] = biological target: G-protein coupled receptor 55 (Homo sapiens, UniProt Q9Y2T6); test: GPR55 antagonists blocking LPI-driven arrestin recruitment, primary screen, imaging, U2OS, beta-arrestin-GFP, LPI agonist (AID 2013); type: functional;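 note: antagonist potency measured as reduced agonist-driven arrestin aggregation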
G-protein coupled receptor 55, sequence (Q9Y2T6 whole entry): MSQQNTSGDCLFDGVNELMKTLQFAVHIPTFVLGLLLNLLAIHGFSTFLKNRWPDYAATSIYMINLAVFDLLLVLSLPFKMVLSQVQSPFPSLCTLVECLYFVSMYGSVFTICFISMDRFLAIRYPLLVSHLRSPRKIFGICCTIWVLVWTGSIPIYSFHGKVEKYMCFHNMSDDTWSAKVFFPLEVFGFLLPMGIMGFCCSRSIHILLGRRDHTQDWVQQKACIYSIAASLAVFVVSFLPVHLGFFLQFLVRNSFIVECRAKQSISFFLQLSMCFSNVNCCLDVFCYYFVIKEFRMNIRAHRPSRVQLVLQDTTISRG

[7] = test system: BJ; test: cytotoxicity toward BJ-TERT-LT-ST fibroblasts, dose response, cell-based, RAS-independent, luminescence (AID 1935); type: functional; details: Homo sapiens;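 note: BJ fibroblasts immortalized with TERT plus LT and ST oncogenes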
[8] = cytotoxicity toward DRD oncogenic fibroblasts, dose response, cell-based, non-viral oncogenic, luminescence (AID 1934); type: functional; details: Homo sapiens
[9] = biological target: T1, Ubiquitin-conjugating enzyme E2 N (Homo sapiens, UniProt P61088); type: functional;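 note: Dose-response confirmation in a TR-FRET assay detecting UBC13-driven polyubiquitin chain formation, inhibition measured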
T1 sequence (P61088 whole entry): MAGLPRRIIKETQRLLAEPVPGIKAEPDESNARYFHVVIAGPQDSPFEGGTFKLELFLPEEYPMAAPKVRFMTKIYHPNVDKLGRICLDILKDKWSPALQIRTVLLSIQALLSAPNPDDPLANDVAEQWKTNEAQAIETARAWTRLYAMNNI

[10] = biological target: T2, Insulin-degrading enzyme (Homo sapiens, UniProt P14735); test: activators of recombinant IDE enzyme, dose response, counter-screen for IDE activator project, biochemical, fluorescence polarization (AID 588681)
T2 sequence (P14735 whole entry): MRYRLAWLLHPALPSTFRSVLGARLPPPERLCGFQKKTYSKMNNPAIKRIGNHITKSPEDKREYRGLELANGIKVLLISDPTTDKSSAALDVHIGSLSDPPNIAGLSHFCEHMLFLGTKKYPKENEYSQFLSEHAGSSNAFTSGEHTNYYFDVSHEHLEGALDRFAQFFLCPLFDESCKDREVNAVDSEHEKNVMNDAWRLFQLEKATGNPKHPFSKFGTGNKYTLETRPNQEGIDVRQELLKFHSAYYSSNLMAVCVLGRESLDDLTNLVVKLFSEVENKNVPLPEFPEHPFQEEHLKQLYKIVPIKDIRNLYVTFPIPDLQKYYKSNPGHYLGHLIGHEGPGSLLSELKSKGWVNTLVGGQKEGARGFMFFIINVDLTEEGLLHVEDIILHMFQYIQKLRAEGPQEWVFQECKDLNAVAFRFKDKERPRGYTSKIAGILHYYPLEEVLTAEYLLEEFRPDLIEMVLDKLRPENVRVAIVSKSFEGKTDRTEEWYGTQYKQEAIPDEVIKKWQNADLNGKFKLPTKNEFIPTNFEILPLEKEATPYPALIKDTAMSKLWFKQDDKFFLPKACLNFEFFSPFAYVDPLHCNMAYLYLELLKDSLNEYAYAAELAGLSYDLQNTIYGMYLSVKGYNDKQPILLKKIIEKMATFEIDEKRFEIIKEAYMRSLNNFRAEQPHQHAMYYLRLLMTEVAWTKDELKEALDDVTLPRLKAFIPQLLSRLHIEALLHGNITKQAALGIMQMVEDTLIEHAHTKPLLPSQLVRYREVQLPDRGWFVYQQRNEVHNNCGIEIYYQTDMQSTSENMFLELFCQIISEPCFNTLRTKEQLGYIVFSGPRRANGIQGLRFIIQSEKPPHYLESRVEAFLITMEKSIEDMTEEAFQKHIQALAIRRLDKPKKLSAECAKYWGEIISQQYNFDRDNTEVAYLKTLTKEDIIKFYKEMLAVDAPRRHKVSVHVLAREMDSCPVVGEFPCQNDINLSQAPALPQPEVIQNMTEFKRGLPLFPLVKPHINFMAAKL

[11] = test system: BJ; test: cytotoxicity toward Ras-transformed BJeLR fibroblasts, dose response, cell-based, alamar blue fluorescence, cherrypicked samples (AID 2631); type: functional; details: Homo sapiens;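 note: confirmatory dose-response assay in RAS-dependent BJ fibroblasts engineered with TERT, LT and ST, with cytotoxicity read by fluorescence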
[12] = biological target: T2, Insulin-degrading enzyme; test: activators of endogenous IDE in HEK cells, dose response, cell-based, fluorescence polarization (AID 588439); type: functional
[13] = test system: INS1; test: beta cell apoptosis inhibitors, cytokine rescue, dose response, luminescence, retest (AID 449756); type: functional, cell-based; details: Rattus norvegicus;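 note: cell death triggered by IL-1 beta plus TNF-alpha plus IFN-gamma mixture; protective hits raise ATP signal compared with cytokine alone wells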
[14] = test system: HEK293; test: HEK cell cytotoxicity by LDH release, dose response, cytotoxicity control for IDE activator project, fluorescence, HEK cells (AID 588440); type: functional, cell-based; details: Homo sapiens;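 note: cytotoxicity by LDH release measuring loss of membrane integrity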
[15] = test system: HEK293; test: optical interference in Abeta FP readout, dose response, artefact control for IDE activator project, biochemical, fluorescence polarization (AID 588442); type: functional, cell-based; details: Homo sapiens
[16] = biological target: T3, High affinity choline transporter 1 (Homo sapiens, UniProt Q9GZV3); test: CHT activators, dose response, cell-based, 10-point CRC, membrane potential dye (AID 602376); type: functional
T3 sequence (Q9GZV3 whole entry): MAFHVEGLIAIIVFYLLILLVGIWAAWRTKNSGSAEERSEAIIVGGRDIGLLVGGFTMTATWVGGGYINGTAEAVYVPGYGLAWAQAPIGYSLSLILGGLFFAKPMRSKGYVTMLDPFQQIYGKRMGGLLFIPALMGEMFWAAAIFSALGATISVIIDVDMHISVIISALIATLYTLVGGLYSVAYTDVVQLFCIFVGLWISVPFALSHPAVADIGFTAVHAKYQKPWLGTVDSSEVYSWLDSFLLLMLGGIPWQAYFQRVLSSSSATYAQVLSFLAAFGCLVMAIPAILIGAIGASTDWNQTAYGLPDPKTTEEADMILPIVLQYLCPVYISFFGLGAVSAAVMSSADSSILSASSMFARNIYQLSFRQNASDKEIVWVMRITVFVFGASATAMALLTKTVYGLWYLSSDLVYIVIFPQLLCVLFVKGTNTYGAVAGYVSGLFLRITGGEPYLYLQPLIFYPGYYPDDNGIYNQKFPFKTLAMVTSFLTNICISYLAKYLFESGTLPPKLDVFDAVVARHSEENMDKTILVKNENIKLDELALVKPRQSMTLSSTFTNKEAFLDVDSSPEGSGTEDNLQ

[17] = biological target: Protein disulfide-isomerase (Homo sapiens, UniProt P07237); test: PDI inhibitors, insulin aggregation turbidity, dose response, biochemical, absorbance, cherry-picked samples (AID 602350); type: functional
[18] = biological target: MAP/microtubule affinity-regulating kinase 4 (Homo sapiens, UniProt Q96L34); test: Navigating the Kinome. Panel member name: MARK4; type: functional
MAP/microtubule affinity-regulating kinase 4, sequence (Q96L34 whole entry): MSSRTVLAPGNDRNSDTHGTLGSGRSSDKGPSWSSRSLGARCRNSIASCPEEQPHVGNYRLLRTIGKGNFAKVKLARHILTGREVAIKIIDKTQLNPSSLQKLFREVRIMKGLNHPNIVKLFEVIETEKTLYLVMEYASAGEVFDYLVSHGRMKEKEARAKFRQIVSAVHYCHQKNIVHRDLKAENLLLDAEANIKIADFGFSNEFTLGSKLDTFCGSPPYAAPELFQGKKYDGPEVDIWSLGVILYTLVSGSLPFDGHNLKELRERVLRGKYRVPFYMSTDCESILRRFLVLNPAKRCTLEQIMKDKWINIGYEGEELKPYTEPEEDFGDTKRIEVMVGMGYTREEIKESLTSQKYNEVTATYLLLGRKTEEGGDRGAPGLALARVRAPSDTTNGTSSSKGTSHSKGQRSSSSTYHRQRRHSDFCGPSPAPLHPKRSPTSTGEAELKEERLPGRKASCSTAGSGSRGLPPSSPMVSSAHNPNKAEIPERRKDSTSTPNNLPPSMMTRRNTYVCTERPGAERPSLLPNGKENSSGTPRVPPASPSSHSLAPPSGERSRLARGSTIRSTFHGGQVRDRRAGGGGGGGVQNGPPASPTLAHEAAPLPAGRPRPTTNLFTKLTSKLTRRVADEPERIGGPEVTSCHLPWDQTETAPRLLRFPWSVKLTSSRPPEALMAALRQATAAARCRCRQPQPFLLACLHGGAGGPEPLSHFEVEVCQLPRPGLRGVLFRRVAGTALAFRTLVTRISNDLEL

[19] = biological target: Tyrosine-protein kinase receptor TYRO3 (Homo sapiens, UniProt Q06418); type: functional;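 note: TYRO3 value obtained as one member of a kinome-wide profiling panel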
[20] = biological target: Serine/threonine-protein kinase D3 (Homo sapiens, UniProt O94806); type: functional;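 note: determined within a kinase panel screen, with PRKCN as the panel member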
[21] = biological target: Death-associated protein kinase 3 (Homo sapiens, UniProt O43293); type: functional;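 note: measured as one member of a kinome-wide profiling panel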
[22] = biological target: Serine/threonine-protein kinase TAO1 (Homo sapiens, UniProt Q7L7X3); type: functional
[23] = biological target: Proto-oncogene tyrosine-protein kinase ROS (Homo sapiens, UniProt P08922); type: functional;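 note: ROS1 tested as one member of a kinome-wide kinase panel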
[24] = biological target: MAP/microtubule affinity-regulating kinase 3 (Homo sapiens, UniProt P27448); type: functional;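 note: MARK3 affinity measured as one member of a kinome panel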
MAP/microtubule affinity-regulating kinase 3, sequence (P27448 whole entry): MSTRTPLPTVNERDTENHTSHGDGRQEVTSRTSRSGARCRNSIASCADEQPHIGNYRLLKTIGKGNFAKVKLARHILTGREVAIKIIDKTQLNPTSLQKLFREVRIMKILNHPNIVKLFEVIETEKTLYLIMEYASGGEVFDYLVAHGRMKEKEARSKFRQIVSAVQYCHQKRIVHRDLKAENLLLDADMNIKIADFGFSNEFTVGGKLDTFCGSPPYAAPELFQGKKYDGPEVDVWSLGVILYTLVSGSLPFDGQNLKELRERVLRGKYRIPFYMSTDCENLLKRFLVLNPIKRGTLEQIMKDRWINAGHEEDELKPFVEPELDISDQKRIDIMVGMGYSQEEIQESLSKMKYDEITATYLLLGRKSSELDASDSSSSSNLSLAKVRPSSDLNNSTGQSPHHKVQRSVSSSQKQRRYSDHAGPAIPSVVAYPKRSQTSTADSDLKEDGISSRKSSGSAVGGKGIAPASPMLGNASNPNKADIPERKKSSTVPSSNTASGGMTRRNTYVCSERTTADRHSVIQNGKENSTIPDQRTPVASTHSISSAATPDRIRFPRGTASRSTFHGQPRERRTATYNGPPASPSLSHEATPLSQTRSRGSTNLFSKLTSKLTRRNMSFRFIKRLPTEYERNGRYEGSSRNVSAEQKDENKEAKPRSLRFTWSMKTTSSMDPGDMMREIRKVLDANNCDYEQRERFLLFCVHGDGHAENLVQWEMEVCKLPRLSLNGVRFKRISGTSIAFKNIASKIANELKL

[25] = biological target: Glycogen synthase kinase-3 alpha (Homo sapiens, UniProt P49840); type: functional;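 note: GSK3A result taken from a broad kinome-wide kinase panel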
[26] = biological target: Mitogen-activated protein kinase kinase kinase kinase 2 (Homo sapiens, UniProt Q12851); type: functional;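 note: measured as one member of a kinome-wide kinase panel, with MAP4K2 as the panel entry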
[27] = biological target: Serine/threonine-protein kinase SIK2 (Homo sapiens, UniProt Q9H0K1); test: Navigating the Kinome. Panel member name: SIK2; type: functional
Serine/threonine-protein kinase SIK2, sequence (Q9H0K1 whole entry): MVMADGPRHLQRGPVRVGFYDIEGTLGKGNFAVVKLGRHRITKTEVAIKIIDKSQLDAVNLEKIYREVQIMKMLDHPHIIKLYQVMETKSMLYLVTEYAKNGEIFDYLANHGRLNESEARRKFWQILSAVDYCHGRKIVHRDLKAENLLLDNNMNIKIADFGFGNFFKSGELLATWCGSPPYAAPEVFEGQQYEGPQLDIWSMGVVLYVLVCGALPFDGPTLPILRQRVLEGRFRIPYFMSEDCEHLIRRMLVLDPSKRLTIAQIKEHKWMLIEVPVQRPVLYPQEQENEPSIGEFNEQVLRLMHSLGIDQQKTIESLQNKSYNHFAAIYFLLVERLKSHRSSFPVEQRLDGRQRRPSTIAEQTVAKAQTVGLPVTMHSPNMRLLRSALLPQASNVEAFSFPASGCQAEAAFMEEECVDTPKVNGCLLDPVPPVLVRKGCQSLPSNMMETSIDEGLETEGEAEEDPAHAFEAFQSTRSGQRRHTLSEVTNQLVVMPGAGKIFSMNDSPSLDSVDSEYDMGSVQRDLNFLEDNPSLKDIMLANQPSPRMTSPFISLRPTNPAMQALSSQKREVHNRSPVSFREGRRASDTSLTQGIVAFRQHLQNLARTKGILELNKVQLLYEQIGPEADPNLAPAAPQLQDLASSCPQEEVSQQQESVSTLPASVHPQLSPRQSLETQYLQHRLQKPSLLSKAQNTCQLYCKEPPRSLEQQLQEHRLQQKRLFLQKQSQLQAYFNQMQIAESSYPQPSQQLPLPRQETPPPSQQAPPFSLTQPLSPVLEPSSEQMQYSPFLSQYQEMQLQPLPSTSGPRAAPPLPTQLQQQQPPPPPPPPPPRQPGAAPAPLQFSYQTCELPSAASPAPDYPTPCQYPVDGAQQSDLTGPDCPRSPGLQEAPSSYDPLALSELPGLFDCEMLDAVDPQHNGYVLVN

[28] = biological target: Dual specificity tyrosine-phosphorylation-regulated kinase 1B (Homo sapiens, UniProt Q9Y463); test: Navigating the Kinome. Panel member name: DYRK1B; type: functional
Dual specificity tyrosine-phosphorylation-regulated kinase 1B, sequence (Q9Y463 whole entry): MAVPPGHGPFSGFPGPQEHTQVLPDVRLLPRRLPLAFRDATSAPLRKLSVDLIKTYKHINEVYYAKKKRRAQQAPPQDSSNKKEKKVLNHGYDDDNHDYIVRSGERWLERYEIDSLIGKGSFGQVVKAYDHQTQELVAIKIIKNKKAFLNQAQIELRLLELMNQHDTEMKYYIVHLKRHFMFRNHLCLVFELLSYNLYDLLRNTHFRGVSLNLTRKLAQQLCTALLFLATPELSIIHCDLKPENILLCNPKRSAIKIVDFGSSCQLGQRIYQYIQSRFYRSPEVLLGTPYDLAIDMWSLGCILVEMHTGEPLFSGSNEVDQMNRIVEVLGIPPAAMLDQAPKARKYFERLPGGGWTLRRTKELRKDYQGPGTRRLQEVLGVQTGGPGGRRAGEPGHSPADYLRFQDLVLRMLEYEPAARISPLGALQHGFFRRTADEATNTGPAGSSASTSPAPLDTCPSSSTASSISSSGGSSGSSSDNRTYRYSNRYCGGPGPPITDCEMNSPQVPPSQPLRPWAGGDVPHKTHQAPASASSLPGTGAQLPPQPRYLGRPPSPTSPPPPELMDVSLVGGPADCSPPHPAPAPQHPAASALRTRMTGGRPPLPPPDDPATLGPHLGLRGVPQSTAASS

[29] = biological target: Maternal embryonic leucine zipper kinase (Homo sapiens, UniProt Q14680); type: functional
Maternal embryonic leucine zipper kinase, sequence (Q14680 whole entry): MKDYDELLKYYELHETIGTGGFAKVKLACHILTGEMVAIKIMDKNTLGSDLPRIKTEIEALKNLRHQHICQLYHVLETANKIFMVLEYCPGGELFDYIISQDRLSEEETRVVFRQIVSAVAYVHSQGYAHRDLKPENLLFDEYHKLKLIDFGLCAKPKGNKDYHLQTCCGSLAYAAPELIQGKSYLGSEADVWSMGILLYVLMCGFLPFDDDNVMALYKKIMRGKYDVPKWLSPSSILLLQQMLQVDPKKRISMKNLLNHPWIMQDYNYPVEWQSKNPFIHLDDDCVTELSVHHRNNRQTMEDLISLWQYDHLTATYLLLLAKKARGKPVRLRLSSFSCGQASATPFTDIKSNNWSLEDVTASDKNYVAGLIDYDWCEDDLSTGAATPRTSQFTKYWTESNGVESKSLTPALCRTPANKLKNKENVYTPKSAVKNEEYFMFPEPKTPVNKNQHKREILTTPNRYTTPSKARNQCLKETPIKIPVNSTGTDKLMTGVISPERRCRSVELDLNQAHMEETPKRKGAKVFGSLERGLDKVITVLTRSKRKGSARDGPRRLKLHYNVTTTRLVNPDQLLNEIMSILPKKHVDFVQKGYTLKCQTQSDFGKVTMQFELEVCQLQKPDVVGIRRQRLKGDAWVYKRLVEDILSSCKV

[30] = biological target: BDNF/NT-3 growth factors receptor (Homo sapiens, UniProt Q16620); type: functional;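 note: NTRK2 measured as one member of a broad kinome-wide kinase profiling panel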
[31] = biological target: Macrophage-stimulating protein receptor (Homo sapiens, UniProt Q04912); test: Navigating the Kinome. Panel member name: MST1R; type: functional
[32] = biological target: Leukocyte tyrosine kinase receptor (Homo sapiens, UniProt P29376); test: Navigating the Kinome. Panel member name: LTK; type: functional

## COC(=O)C1=C(C)N(Cc2ccccc2)C(NCc2cccc(C(F)(F)F)c2)=N[C@H]1c1cccc(F)c1
[1]
  EC50: 8.28 µM (active)
[2]
  EC50: 5.26 µM (inconclusive)
[3]
  EC50: 11 µM (active)
[4]
  EC50: > 120 µM (not active)
[5]
  EC50: > 150 µM (inconclusive)
[6]
  IC50: 1.85 µM (active)
[7]
  EC50: 4.9 µM (active)
[8]
  EC50: 9.59 µM (inconclusive)
[9]
  IC50: > 20 µM (inactive)
[10]
  EC50: > 54.7 µM (inactive)
[11]
  EC50: > 133 µM (inconclusive)
[12]
  EC50: 9.71 µM (active)
[13]
  AC50: 6.83 µM (active)
[14]
  IC50: 11.3 µM (inactive)
[15]
  EC50: > 54.7 µM (inactive)

## CCCCn1c(N)c(N(CCC(C)C)C(=O)C2CCCN(C(=O)c3ccc(Cl)cc3)C2)c(=O)[nH]c1=O (configuration not stated)
[16]
  EC50: 21.3 µM (active)

## CCOc1cc(N2CCOCC2)c(OCC)cc1NC(=O)COC(=O)[C@H](Cc1c[nH]c2ccccc12)NC(C)=O
[17]
  AC50: 19.5 µM (active)

## Nc1nc(Nc2ccc(S(N)(=O)=O)cc2)nn1C(=O)c1c(F)cccc1F [JNJ-7706621]
[18]
  Ki: 0.1 µM (active)
[19]
  Ki: 0.794 µM (active)
[20]
  Ki: 2 µM (active)
[21]
  Ki: 2 µM (active)
[22]
  Ki: 0.0251 µM (active)
[23]
  Ki: 0.501 µM (active)
[24]
  Ki: 0.794 µM (active)
[25]
  Ki: 0.158 µM (active)
[26]
  Ki: 1.58 µM (active)
[27]
  Ki: 0.251 µM (active)
[28]
  Ki: > 2 µM (inactive)
[29]
  Ki: 0.631 µM (active)
[30]
  Ki: 2 µM (active)
[31]
  Ki: 0.1 µM (active)
[32]
  Ki: > 1.58 µM (inactive)
